Experimental data as given in ChEMBL document CHEMBL1142615, “Polyoxygenated dysidea sterols that inhibit the binding of [I125] IL-8 to the human recombinant IL-8 receptor type A” (J Nat Prod, 2000).

Target: T1, C-X-C chemokine receptor type 1 (Homo sapiens, UniProt P25024)
T1 sequence (P25024 whole entry): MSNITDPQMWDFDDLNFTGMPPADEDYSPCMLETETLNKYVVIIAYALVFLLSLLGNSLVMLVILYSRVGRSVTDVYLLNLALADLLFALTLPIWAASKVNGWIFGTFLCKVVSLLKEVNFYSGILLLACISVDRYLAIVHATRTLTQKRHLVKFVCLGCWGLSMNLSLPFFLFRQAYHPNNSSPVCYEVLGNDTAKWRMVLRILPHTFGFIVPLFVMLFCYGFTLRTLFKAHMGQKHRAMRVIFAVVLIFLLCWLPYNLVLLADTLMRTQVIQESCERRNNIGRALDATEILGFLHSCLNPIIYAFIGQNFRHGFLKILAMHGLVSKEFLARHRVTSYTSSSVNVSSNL
Assay: Displacement of [125I]IL8 from human recombinant IL8 type A receptor

Row | Structure (SMILES) | IC50 [µM]
1 | CC(=O)O[C@H]1C=C2[C@@H]3CC[C@H]([C@H](C)CCCC(C)C)[C@@]3(C)C[C@H]3O[C@@]23[C@@]2(C)CC[C@H](O)C[C@]12O | 4.5
2 | CC(=O)O[C@H]1C2=C([C@H](O)C[C@]3(C)[C@@H]([C@H](C)CCCC(C)C)CC[C@@H]23)[C@@]2(C)CC[C@H](O)C[C@]2(O)[C@H]1OC(C)=O | 20
3 | CC(=O)O[C@H]1CC[C@]2(C)C3=C([C@H](OC(C)=O)[C@H](OC(C)=O)[C@@]2(O)C1)[C@@H]1CC[C@H]([C@H](C)CCCC(C)C)[C@@]1(C)C[C@H]3O | 5.5
